Compound	melting point [°C]
COc1ccc(CNc2nc(CCC(=O)O)nc3sc4ccccc4c23)cc1Cl [Example 2, 3-[4-(3-chloro-4-methoxybenzylamino)-benzothieno-[2,3-d]-pyrimidin-2-yl]propionic acid]	218
COC(=O)c1ccc(-c2nc(NCc3ccc(OC)c(Cl)c3)c3c(n2)sc2ccccc23)cc1 [Example 3, methyl 4-[4-(3-chloro-4-methoxybenzylamino)-[1]-benzothieno-[2,3-d]-pyrimidin-2-yl]benzoate]	203 to 204
